Legend:
[1] = NOVARTIS: Cytotoxicity against human hepatocellular carcinoma cell line (Huh7); assay type: toxicity, cell-based, Huh-7; conditions: Huh7 cells (hepatocellular carcinoma cell line)
[2] = system: Plasmodium falciparum; assay: NOVARTIS: Inhibition of Plasmodium falciparum 3D7 (drug-susceptible) proliferation in erythrocyte-based infection assay; assay type: functional, organism-based; conditions: Plasmodium falciparum, 3D7
[3] = system: Plasmodium falciparum; assay: NOVARTIS: Inhibition of Plasmodium falciparum W2 (drug-resistant) proliferation in erythrocyte-based infection assay; assay type: functional, organism-based; conditions: Plasmodium falciparum, W2; read-out: EC50

| Compound | CC50 [1] | EC50 [2] | EC50 [3] |
| --- | --- | --- | --- |
| O=C(NCc1ccco1)C1CCN(S(=O)(=O)c2ccc(Br)cc2)CC1 | > 100 µM | 0.362 µM | 0.629 µM |
| Cc1nc(N2CCN(c3ccccn3)CC2)c2c(C)c(C(=O)Nc3c(F)cccc3F)sc2n1 | > 100 µM | 3.14 µM | 0.694 µM |
| CCc1ccc(-n2c(C(CC)N(CCc3ccc(OC)c(OC)c3)C(=O)C(CC)c3ccccc3)nc3ccccc3c2=O)cc1 (configuration not stated) | > 10 µM | > 1.25 µM | > 0.867 µM |
| O=C(C1Cc2ccccc2CN1S(=O)(=O)c1ccc(F)cc1)N1CCOCC1 (configuration not stated) | > 10 µM | > 1.33 µM | 0.641 µM |
| O=C(Nc1ccc(N2CCCCC2)cc1)c1cc2ccccc2o1 | > 3.66 µM | > 1.3 µM | 0.634 µM |
| COc1ccc(C=Cc2ccc3ccccc3[n+]2C)cc1 | > 100 µM | > 5.37 µM | 7.93 µM |
| CC1(C)C=C(C23C=CC(C2)C2C(=C4CC(C)(C)NC(C)(C)C4)C=CC23)CC(C)(C)N1 (configuration not stated) | 44.7 µM | 2.23 µM | 1.97 µM |
| CC(C)CCn1nc(C(=O)N2CCOCC2)c2c1CCN(C(=O)c1ccc(N3CCOCC3)cc1)C2 | > 100 µM | > 11.8 µM | 3.96 µM |
| N=c1n(Cc2ccccc2)c2ccccc2n1CC(O)c1ccc(Br)cc1 (configuration not stated) | 21.8 µM | 0.254 µM | 0.101 µM |
| CN(C)CCNC(=O)c1ccc(-c2cccc3c2sc2ccccc23)nc1N1CCN(CCO)CC1 | 5.32 µM | 0.388 µM | 0.452 µM |
| CCOC(=O)c1c(C)oc2c1c1c(c3ccccc32)OCN(C2CCCC2)C1 | > 100 µM | 11.1 µM | 2.96 µM |
| Cc1cc(N2CCN(C3CCCC3)CC2)n2c(nc3ccccc32)c1C#N | > 100 µM | 0.743 µM | 1.67 µM |
| c1cc2c(cc1Nc1c3c(nc4nncn14)CCC3)OCCO2 | > 100 µM | 2.95 µM | 1.48 µM |
| O=C1c2ccccc2-n2c1nc1ccccc1c2=O [TRYPTANTHRIN] | > 10 µM | 0.212 µM | 0.276 µM |
| CCN1CCN(c2cc(C)c3cc(NC(=O)/C=C/c4ccc(OC)cc4)ccc3n2)CC1 | > 10.4 µM | 0.905 µM | 0.762 µM |
| FC(F)(F)c1ccc(-c2nc(C34CC5CC(CC(C5)C3)C4)cs2)cc1 | > 10 µM | 1.57 µM | 0.2 µM |
| CCCCC(=O)N(C/C=C/c1ccccc1OC)CCN1CCN(C(=O)NC23CC4CC(CC(C4)C2)C3)CC1 | > 10 µM | 1.45 µM | 0.313 µM |
| Cc1ccc(C[n+]2cc(-c3ccc(C)cc3)n3c2CCC3)cc1 | 34.5 µM | 0.538 µM | 0.24 µM |
| Cc1noc(-c2ccc(O)cc2O)c1-c1ccc2c(c1)OCCCO2 | > 10 µM | 0.47 µM | 0.209 µM |
| O=C(NCCCN1CCCC1=O)c1cnc(N2CCN(Cc3ccccc3)CC2)nc1NCCc1ccccc1 | > 10 µM | 0.572 µM | 0.699 µM |
| COc1ccc(-c2cc(C(F)(F)F)n3ncc(C(=O)Nc4cc(C)ccc4O)c3n2)cc1OC | > 100 µM | 3.35 µM | 2.13 µM |
| N#CC(c1ccc(C(F)(F)F)cc1)c1ccc2c(C(F)(F)F)cc(C(F)(F)F)nc2n1 (configuration not stated) | 2.51 µM | 0.413 µM | 0.316 µM |
| CCOC(=O)c1cccc(NC(=O)CCn2nc(C)c3c(C)n(-c4ccccc4)nc3c2=O)c1 | > 100 µM | 3.06 µM | 4.27 µM |
| O=[N+]([O-])c1ccc(S(=O)(=O)N2CCN(C(=S)NCc3ccccc3)CC2)cc1 | > 100 µM | 0.0796 µM | 0.038 µM |
| Oc1ccc(-c2ccnc3cc(Cl)ccc23)cc1CNC1CN2CCC1CC2 (configuration not stated) | > 10 µM | 0.986 µM | < 0.0241 µM |

| Compound | CC50 [1] | EC50 [2] | EC50 [3] |
| --- | --- | --- | --- |
| CC1CC(C)CN(CCCNc2ccc(C(=O)Nc3ccc(C(F)(F)F)cc3)cc2[N+](=O)[O-])C1 (configuration not stated) | > 100 µM | 0.119 µM | 0.401 µM |
| CCCCCc1ccc(OCCCC[n+]2cccc(C)c2)c(CCCCC)c1 | 20.5 µM | 0.713 µM | 0.336 µM |
| CSc1ccc(C=CC(=O)NC(=O)c2ccccc2O)cc1 | > 100 µM | 0.243 µM | 0.225 µM |
| CCC(C(=O)Oc1ccccc1-c1nc2cc(C)ccn2c1NC(C)(C)CC(C)(C)C)c1ccccc1 (configuration not stated) | > 10 µM | 0.894 µM | 0.0347 µM |
| Cc1nc2ccccc2n1S(C)(=O)=O | > 10 µM | 0.0596 µM | 0.0543 µM |
| CN(C)c1ccc(C(=C2C=CC(=[N+](C)C)C=C2)c2ccc(N(C)C)cc2)cc1 [GENTIAN VIOLET] | 1.43 µM | 0.0221 µM | 0.17 µM |
| CCOC(=O)C1(CC)CC(C)(C(=O)C[n+]2cccc(Br)c2)OC1=O (configuration not stated) | > 10 µM | 0.41 µM | 0.628 µM |
| COc1ccc(S(=O)(=O)N2CCC(c3nnc(-c4ccccc4OC)o3)CC2)cc1 | > 100 µM | 2.31 µM | 1.1 µM |
| COC(=O)c1ccc(C=NNc2cc(C)nc3ccc(OC)cc23)cc1 | 16.5 µM | 0.204 µM | 0.537 µM |
| NC(=O)C(Cc1ccccc1)Nc1ccc([N+](=O)[O-])cc1[N+](=O)[O-] (configuration not stated) | > 10 µM | 0.883 µM | 0.68 µM |
| Cc1cc(Nc2ccc([N+](=O)[O-])cc2O)nc2ccccc12 | 28.1 µM | 0.357 µM | 0.144 µM |
| O=C(Nc1ccc(Cl)cc1)c1c2c(nc3ccccc13)-c1ccccc1CC2 | > 100 µM | 0.41 µM | 0.338 µM |
| COc1ccc(NC(=O)Cn2c(-c3ccc(OC)cc3)cn(-c3ccc(C)cc3)c2=O)cc1 | > 10 µM | 0.889 µM | > 0.676 µM |
| CCCN(CC(=O)Nc1cc(C(C)(C)C)nn1-c1cccc(C)c1C)C(=O)C(C)(C)C | > 10 µM | > 1.25 µM | > 0.763 µM |
| CCOC(=O)c1ccc(NCc2c(C)[nH]c3ccccc3c2=O)cc1 | > 100 µM | 0.342 µM | 0.254 µM |
| O=C(CCc1ccccc1)c1ccccc1OCC(O)CN1CCCCC1 (configuration not stated) | 87.9 µM | 0.881 µM | 0.144 µM |
| c1cc2cc(CN3CCc4nc(N5CCCCC5)sc4C3)ccc2[nH]1 | > 10 µM | 0.41 µM | 0.326 µM |
| CC1CCC(C(C)(C)Oc2ccc(NC(=O)c3ccccc3)cc2)CC1 (configuration not stated) | 42.8 µM | 3.97 µM | 1.17 µM |
| COc1ccc(Nc2nc(N3CCCC3)c3ccccc3n2)cc1 | 10.2 µM | 0.285 µM | 0.334 µM |
| CSc1cccc(NC(=O)C2C3C=CC4(O3)C2C(=O)N(C2CC2)C4C(=O)NC2CCCCC2)c1 (configuration not stated) | > 10 µM | 1.75 µM | < 0.0145 µM |
| Cc1cccc(C)c1OCC(=O)Nc1ccccc1O | > 100 µM | 0.742 µM | 1.36 µM |
| Nc1c(C(=O)NCc2ccccc2)nnn1Cc1ccc(F)cc1Cl | > 10 µM | > 0.86 µM | 0.722 µM |
| Cc1ccn2c(NC(C)(C)CC(C)(C)C)c(-c3ccccc3OC(=O)CCC3CCCC3)nc2c1 | > 10 µM | 1.1 µM | < 0.0102 µM |
| CCOc1ccc2[nH]c(=O)c(CN(CCc3ccccc3)C(=O)c3cnccn3)cc2c1 | > 10 µM | > 0.428 µM | > 0.397 µM |
